Assay results: patent publication US11702428B2, “Chemical compounds as inhibitors of interleukin-1 activity” (Genentech, Inc., priority 2017, dated 2023)
Where two headings read alike, the source gives them in different places.

Experiments:
IL-1β = test: LPS/ATP challenge model in C57BL/6 mice, IL-1β in peritoneal lavage; type: in vivo; conditions: 3.5 hours post dose
Protocol: The purpose of this study was to determine the effects of Compounds 1 and 2 treatment on cytokine production after LPS/ATP injection in female C57BL/6 mice.
On Day −1 mice were weighed and assigned to groups per Table 2 (see below) in a balanced manner to achieve similar average weight across the groups at the start of the study.
All mice received a single dose of treatment or vehicle, at hour minus 1.
At hour 0, all mice received 1 μg of lipopolysaccharide, ultra pure (LPS, InvivoGen, San Diego, Calif.) in 0.5 ml PBS, intraperitoneally.
At hour 2 (two hours after LPS injection), all mice were injected intraperitoneally with 0.5 ml of 80 mM ATP disodium salt (Sigma, pH adjusted to 7.2 before injection).
At hour 2.5 (30 minutes after ATP injection and 3.5 hours after compound dosing), blood from all mice was collected via retro-orbital bleeding into K2 EDTA tubes and plasma was prepared and stored at […]. Samples were shipped to the customer or vendor of customers choosing within 7 days of completing the study.
Immediately after the collection of blood, each mouse was euthanized, the peritoneal cavity was lavaged with 3 ml of ice-cold PBS containing 25 U/ml heparin sodium salt, cocktail of protease inhibitors (Complete™ ULTRA Tablets, Sigma, Roche), and 10% FBS. Approximately 1 ml of the lavage was collected, spun down to remove cells and the supernatant stored at −80° C.
Compound powders were stored at 4° C. All compounds were prepared fresh. Compounds were weighed out and first ground with a mortar and pestle, then ground with a small amount of vehicle. The mortar was then repeatedly rinsed with vehicle to remove all material and achieve the correct concentration. The final solution was vortexed to create a homogeneous mixture
Mouse IL-1β and TNFα concentrations in peritoneal lavage samples were determined using Becton Dickinson (Franklin Lakes, N.J.) CBA analysis kit, according to manufacturer's protocol. A single analysis was performed on each sample.
Concentrations of cytokines were compared using Student t-test.

NLRP3 inflammasome [1] = target: T1, NLRP3 inflammasome (Homo sapiens, UniProt Q96P20); test: NLRP3 inflammasome activation assay in PBMCs (LPS priming, nigericin), IL-1β by ELISA; type: cell-based; set-up: Human peripheral blood mononuclear cells (PBMCs); host or cells: primary human PBMCs from healthy donors; conditions: for IC50: LPS, nigericin, read-out: PBMC IL-1β IC50
T1 sequence (Q96P20 whole entry): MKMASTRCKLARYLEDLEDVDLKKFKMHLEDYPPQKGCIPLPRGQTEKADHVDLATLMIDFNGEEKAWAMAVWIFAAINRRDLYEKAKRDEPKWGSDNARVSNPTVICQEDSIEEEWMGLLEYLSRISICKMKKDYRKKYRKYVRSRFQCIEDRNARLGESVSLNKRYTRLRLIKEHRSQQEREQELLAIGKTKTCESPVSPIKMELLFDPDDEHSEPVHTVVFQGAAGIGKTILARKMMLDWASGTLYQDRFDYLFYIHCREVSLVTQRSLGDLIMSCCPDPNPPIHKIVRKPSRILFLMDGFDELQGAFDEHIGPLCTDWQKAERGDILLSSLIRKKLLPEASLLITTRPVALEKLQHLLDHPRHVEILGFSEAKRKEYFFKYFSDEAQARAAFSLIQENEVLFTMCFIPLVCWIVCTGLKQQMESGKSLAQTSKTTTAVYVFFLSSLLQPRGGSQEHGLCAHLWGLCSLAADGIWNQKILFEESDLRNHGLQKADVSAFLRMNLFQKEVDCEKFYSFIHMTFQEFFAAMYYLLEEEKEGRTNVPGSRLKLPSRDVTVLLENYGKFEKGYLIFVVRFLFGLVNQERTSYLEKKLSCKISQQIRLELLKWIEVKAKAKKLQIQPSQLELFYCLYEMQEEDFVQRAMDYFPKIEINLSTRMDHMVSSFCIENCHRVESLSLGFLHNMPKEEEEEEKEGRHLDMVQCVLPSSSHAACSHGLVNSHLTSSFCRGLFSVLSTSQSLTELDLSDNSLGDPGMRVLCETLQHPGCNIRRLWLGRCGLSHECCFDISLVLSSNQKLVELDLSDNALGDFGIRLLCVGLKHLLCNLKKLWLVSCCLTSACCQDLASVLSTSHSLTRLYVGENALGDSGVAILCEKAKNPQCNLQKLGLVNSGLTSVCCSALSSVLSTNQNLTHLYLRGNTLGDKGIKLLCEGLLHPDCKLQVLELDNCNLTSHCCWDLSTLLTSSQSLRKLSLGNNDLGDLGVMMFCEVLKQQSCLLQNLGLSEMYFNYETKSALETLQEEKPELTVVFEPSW
Protocol: (§1) Some of the following assays were used to determine the inhibitory activity of the compounds on the NLRP3 inflammasome using a common inflammasome activation stimuli-nigericin.
Human peripheral blood mononuclear cells (PBMCs), consisting of lymphocytes (T, B and NK cells), monocytes and dendritic cells, were freshly isolated from human peripheral blood from healthy donors. Cells were obtained through an IRB approved donor program by iXCells Biotechnologies where all the donors were tested for bacterial and viral infections. Cells were purified from peripheral blood using ficoll gradient centrifugation.
(§2) Cells were then stimulated with 10 uM Nigericin (Sigma Aldrich; InvivoGen) for 1.5 h. Plates were centrifuged at 1,500 rpm for 3 minutes to pellet cells and supernatant was transferred into new plates for subsequent experiments.
(§3) For ELISA assays cells were seeded into 96-well plates. Post study, supernatants were removed and the levels of mature IL-1β, IL-18 and TNFα (Quantikine ELISA, R&D systems) were measured in cell conditioned media by ELISA according to manufacturer's instructions.

[2] = tested on: LPS and nigericin stimulated cells; test: cells; type: cell-based; conditions: Homo sapiens, read-out: CTG protective IC50
Protocol: Viability of compound treated cells is measured using CellTiter-Glo® assay (Promega, Madison, Wis.) that measures the ATP content of cells which is proportional to the number of live cells within a well. This is a counter-screen to establish that the reduction of IL-1β levels in LPS and nigericin stimulated and compound treated cells is not due to cytotoxicity, but rather through the inhibition of the inflammasome pathway. Compounds inhibiting NRLP3 inflammasome activation ultimately increase the viability of LPS and nigericin stimulated cells by blocking NLRP3 mediated pyroptosis that would otherwise lead to cell lysis.

TNFα = TNFα levels of LPS and nigericin stimulated cells (counter-screen); type: cell-based, human
Protocol: as §3
TNFα levels of LPS and nigericin stimulated cells is measured by HTRF assay (Cisbio, Bedford, Mass.). […] Measuring TNFalpha production also serves as a technical counter-screen to eliminate compounds that interfere with the HTRF reagents. Thus compounds that inhibit both IL-1β and TNFα levels are triaged for either being non-selective for inflammasome or interfering with the HTRF readout.

NLRP3 inflammasome [3] = target: T1, NLRP3 inflammasome; test: NLRP3 inflammasome activation assay in Kupffer cells (LPS priming, nigericin), IL-1β/IL-18 by ELISA; type: cell-based; conditions: KCs; for IC50: LPS, nigericin, read-out: KC IL-1β IC50
From the text: as §1
Human Kupffer cells (KCs), specialized liver macrophages residing in […], were obtained by gradient isolation from liver specimens harvested post-mortem by Samsara Sciences. Cells were obtained through an IRB approved donor program by Samsara Sciences and all donors tested negative for bacterial and viral infections.
as §2, §3

[4] = Human microsomal stability (Eh); type: in vitro ADME; conditions: hepatic extraction ratio; 0.5 mg/mL microsomal protein, 1 μM, NADPH; liver blood flow 20.7 mL/min/kg
Protocol: The stock solutions of test article and positive control were prepared at a concentration of 10 mM using DMSO as diluents. All stock solutions were then diluted to working concentrations at 0.25 mM with 70% acetonitrile. The cofactor used in this study was NADPH regenerating system, that was composed of 6.5 mM NADP, 16.5 mM G-6-P, 3 U/mL G-6-P D. The quench reagent was consisted of acetonitrile containing tolbutamide and propanolol (serve as internal standard). Incubation mixtures containing 0.5 mg/mL liver microsomal protein and […] test article/positive control in 100 mM potassium phosphate buffer.
The 0-minute samples were prepared by addition of an 80 μL aliquot of each incubation mixture to 300 μL quench reagent to precipitate proteins. The samples were vortexed, and then a 20 μL aliquot of the NADPH regenerating system was added in. The reaction was initiated by addition of 80 μL of the NADPH regenerating system to 320 μL of each incubation mixture. The final incubation conditions achieved in 400 μL are: 0.5 mg/mL microsomal protein, 1 μM test article/positive control, 1.3 mM NADP, 3.3 mM glucose 6 phosphate, 0.6 U/mL glucose 6 phosphate dehydrogenase. The mixtures were incubated in a 37° C. water bath with gentle shaking. A 100 μL aliquot of each mixture was removed at 10, 30, 90 minutes to a clean 96-well plate which contains 300 μL quench reagent to precipitate proteins, and centrifuged (4000×g, 10 min). 80 μL of supernatant are taken into 96-well assay plates pre-added with 160 μL ultrapure water, and then analyzed by LC-MS/MS. Hepatic extraction ratio (Eh) values were calculated from measured in vitro clearance assuming a human liver blood flow of 20.7 mL/min/kg. Eh values of <0.3 are indicative of compounds with favorable metabolic stability.

[5] = LPS and nigericin stimulated cells, CellTiter-Glo

Structure (SMILES)	IC50 [2, 5] [nM]	TNFα IC50 (PBMC or KC) (TNFα)	IC50 (NLRP3 inflammasome [1]) [nM]	IC50 (NLRP3 inflammasome [3]) [nM]	Human Microsomal Stability (Eh) [4]	other results
O=S(=O)(NC(=S)Nc1c2c(cc3c1CCC3)CCC2)c1cnn2c1OCCC2 [Compound 3, N-((1,2,3,5,6,7-hexahydro-s-indacen-4-yl)carbamothioyl)-6,7-dihydro-5H-pyrazolo[5,1-b][1,3]oxazine-3-sulfonamide]						% Decrease of IL-1β vs. Vehicle (IL-1β; single oral dose 0.25 mg/kg): 53.0%; Mean (IL-1β) (IL-1β; single oral dose 0.25 mg/kg): 781.8 pg/mL; % Decrease of IL-1β vs. Vehicle (IL-1β; single oral dose 1 mg/kg): 96.5%; Mean (IL-1β) (IL-1β; single oral dose 1 mg/kg): 57.7 pg/mL; % Decrease of IL-1β vs. Vehicle (IL-1β; single oral dose 2.5 mg/kg): 99.1%; Mean (IL-1β) (IL-1β; single oral dose 2.5 mg/kg): 14.6 pg/mL; IL-1β production in PBMCs (FIG. 1) (NLRP3 inflammasome [1]): inhibition
Cc1c2c(c(NC(=O)NS(=O)(=O)c3cnn4c3OCCC4)c3c1CCC3)CCC2	100 to 1000	No Curve	100 to 1000			
CCO[C@H]1COc2c(S(=O)(=O)NC(=O)Nc3c4c(cc5c3CCC5)CCC4)cnn2C1	< 100	No Curve	< 100	< 100	0.4	
C[C@H]1COc2c(S(=O)(=O)NC(=O)Nc3c4c(cc5c3CCC5)CCC4)cnn2C1	< 100	No Curve	< 100	< 100		
CN[C@H]1COc2c(S(=O)(=O)NC(=O)Nc3c4c(cc5c3CCC5)CCC4)cnn2C1 [drawing 566]		No Curve			<0.1	IC50 [2]: < 100 nM
O=C(Nc1c2c(cc3c1CCC3)CCC2)NS(=O)(=O)c1cnn2c1OC[C@H](O)C2	< 100	No Curve	< 100	< 100	<0.1	
O=C(Nc1c2c(cc3c1CCC3)CCC2)NS(=O)(=O)c1cnn2c1NCCC2	< 100		< 100	< 100	0.2	
O=C(Nc1c2c(cc3c1CCC3)CCC2)NS(=O)(=O)c1cnn2c1OCC1(CC1)C2 [drawing 528]	< 100		< 100	< 100	0.6	
CC1(C)COc2c(S(=O)(=O)NC(=O)Nc3c4c(cc5c3CCC5)CCC4)cnn2C1 [drawing 513]	< 100	No Curve	< 100	< 100	0.5	
CO[C@@H]1COc2c(S(=O)(=O)NC(=O)Nc3c4c(cc5c3CCC5)CCC4)cnn2C1	100 to 1000	No Curve	100 to 1000	100 to 1000	0.2	
CO[C@H]1COc2c(S(=O)(=O)NC(=O)Nc3c4c(cc5c3CCC5)CCC4)cnn2C1	< 100	No Curve	< 100	< 100	0.3	
CN(C)C1COc2c(S(=O)(=O)NC(=O)Nc3c4c(cc5c3CCC5)CCC4)cnn2C1 (stereo not drawn)					0.2	IC50 [2]: < 100 nM
O=C(Nc1c2c(cc3c1CCC3)CCC2)NS(=O)(=O)c1cnn2c1OCCC2		No Curve			0.3	IC50 [2]: < 100 nM
CN(C)[C@H]1COc2c(S(=O)(=O)NC(=O)Nc3c4c(cc5c3CCC5)CCC4)cnn2C1 [drawing 541]		No Curve			0.2	IC50 [2]: < 100 nM
O=C(Nc1c2c(cc3c1CCC3)CCC2)NS(=O)(=O)c1cnn2c1OCC(N1CCCC1)C2 (stereo not drawn)	< 100		< 100		0.6	
CC1COc2c(S(=O)(=O)NC(=O)Nc3c4c(cc5c3CCC5)CCC4)cnn2C1 (stereo not drawn)	< 100		< 100	< 100	0.4	
CN[C@H]1COc2c(S(=O)(=O)NC(=O)Nc3c4c(c(F)c5c3CCC5)CCC4)cnn2C1	< 100		< 100		0.2	
O=C(Nc1c2c(cc3c1CCC3)CCC2)NS(=O)(=O)c1cc2n(n1)CCOC2	100 to 1000	No Curve	100 to 1000			
O=C(Nc1c2c(cc3c1CCC3)CCC2)NS(=O)(=O)c1cnn2c1OCC1(COC1)C2 [Compound 5, N-((1,2,3,5,6,7-hexahydro-s-indacen-4-yl)carbamoyl)-5′,7′-dihydrospiro[oxetane-3,6′-pyrazolo[5,1-b][1,3]oxazine]-3′-sulfonamide]						IL-1β production in Kupffer cells (FIG. 2) (NLRP3 inflammasome [3]): inhibition; IL-18 production in Kupffer cells (FIG. 2) (NLRP3 inflammasome [3]): inhibition
CCN[C@H]1COc2c(S(=O)(=O)NC(=O)Nc3c4c(cc5c3CCC5)CCC4)cnn2C1	< 100		< 100		0.2	
CNC1COc2c(S(=O)(=O)NC(=O)Nc3c4c(cc5c3CCC5)CCC4)cnn2C1 (stereo not drawn)					0.1	IC50 [2]: < 100 nM
CC1CCn2ncc(S(=O)(=O)NC(=O)Nc3c4c(cc5c3CCC5)CCC4)c2O1 (stereo not drawn) [drawing 519]		No Curve	100 to 1000	< 100		
COC1COc2c(S(=O)(=O)NC(=O)Nc3c4c(cc5c3CCC5)CCC4)cnn2C1 (stereo not drawn) [drawing 518]	< 100	No Curve	< 100	< 100		
O=C(Nc1c2c(cc3c1CCC3)CCC2)NS(=O)(=O)c1cnn2c1OCC(O)C2 (stereo not drawn) [drawing 514]	< 100	No Curve	< 100	< 100	0.1	
